Calls of active or inactive are those of the source. The rule behind the calls is not given here.
Tested on: rodent carcinogenicity bioassays, tumor incidence
Assay: CCRIS carcinogenicity studies
Method in brief: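 Archive of carcinogenicity, mutagenicity, tumor promotion and tumor inhibition results drawn from journals, NCI reports and other sources, expert-reviewed; covers 1985-2011 and is no longer updated.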

Cc1cccc2c(C)c3c(ccc4ccccc43)c(C)c12
carcinogen call (Species: MOUSE, Strain/Sex: C57BL/MALE,FEMALE, Route: DERMAL, Tumor Site: Type of Lesion: INTEGUMENTARY SYSTEM (SKIN): PAPILLOMA, EPITHELIOMA, SARCOMA): active; positive
carcinogen call (Species: MOUSE, Strain/Sex: DBA/MALE,FEMALE, Route: DERMAL, Tumor Site: Type of Lesion: INTEGUMENTARY SYSTEM (SKIN): PAPILLOMA, EPITHELIOMA, SARCOMA): active; positive
carcinogen call (Species: MOUSE, Strain/Sex: DBF1/MALE,FEMALE, Route: DERMAL, Tumor Site: Type of Lesion: INTEGUMENTARY SYSTEM (SKIN): PAPILLOMA, EPITHELIOMA, SARCOMA): active; positive
carcinogen call (Species: RAT, Strain/Sex: LONG-EVANS/FEMALE, Route: INTRAVENOUS, Dose: 35 MG/KG, 0.5% IN DMSO DILUTED WITH COTTONSEED OIL-WATER EMULSION, 1/2 WK OR 1/10 D FOR 3-5 DOSES, Tumor Site: Type of Lesion: HEMATOPOIETIC SYSTEM (LEUKEMIA)): active; positive
carcinogen call (Species: RAT, Strain/Sex: LONG-EVANS/MALE, Route: INTRAMUSCULAR, Dose: 2.5 MG IN 0.5 ML SESAME OIL ONCE, Tumor Site: Type of Lesion: INJECTION SITE: SARCOMA): active; positive
carcinogen call (Species: RAT, Strain/Sex: LONG-EVANS/MALE, Route: INTRAVENOUS, Dose: 35 MG/KG, 0.5% IN DMSO DILUTED WITH COTTONSEED OIL-WATER EMULSION, 1/2 WK FOR 4 DOSES, Tumor Site: Type of Lesion: HEMATOPOIETIC SYSTEM (LEUKEMIA)): active; positive

COc1cc(OC)nc(NC(=O)NS(=O)(=O)c2c(Cl)nc3ccccn23)n1
carcinogen call (Species: Mouse, Strain/Sex: CD-1/Female (50/Group), Route: Oral, Dose: 0, 86.8, 870.0, 10,303.5 mg/kg/day of 99.6-99.8% imazosulfuron in diet for 18 mo, study duration 18 mo, Dose: 0, 86.8, 870.0, 10,303.5 mg/kg/day of 99.6-99.8% imazosulfuron in diet for 18 mo, study duration 18 mo): inactive; negative
carcinogen call (Species: Mouse, Strain/Sex: CD-1/Male (50/Group), Route: Oral, Dose: 0, 72.7, 741.3, 7848.1 mg/kg/day of 99.6-99.8% imazosulfuron in diet for 18 mo, study duration 18 mo, Dose: 0, 72.7, 741.3, 7848.1 mg/kg/day of 99.6-99.8% imazosulfuron in diet for 18 mo, study duration 18 mo): inactive; negative
carcinogen call (Species: Rat, Strain/Sex: CD (Sprague-Dawley derived)/Female (50/Group), Route: Oral, Dose: 0, 12.94, 132.46, 1554.35 mg/kg/day of 99.6-99.8% imazosulfuron in diet for 24 mo, study duration 24 mo, Dose: 0, 12.94, 132.46, 1554.35 mg/kg/day of 99.6-99.8% imazosulfuron in diet for 24 mo, study duration 24 mo): inactive; negative
carcinogen call (Species: Rat, Strain/Sex: CD (Sprague-Dawley derived)/Male (50/Group), Route: Oral, Dose: 0, 10.39, 106.10, 1123.99 mg/kg/day of 99.6-99.8% imazosulfuron in diet for 24 mo, study duration 24 mo, Dose: 0, 10.39, 106.10, 1123.99 mg/kg/day of 99.6-99.8% imazosulfuron in diet for 24 mo, study duration 24 mo): inactive; negative

CCC(C)Br (stereo not given)
carcinogen call (Species: MOUSE, Route: INTRAPERITONEAL, Tumor Site: Type of Lesion: LUNG): active; positive

CC[C@H](OC(C)=O)C(C[C@H](C)N(C)C)(c1ccccc1)c1ccccc1
carcinogen call (Species: MOUSE, Strain/Sex: B6C3F1/FEMALE, Route: ORAL, Dose: 0, 7.6, 30.1 MG/KG IN DIET FOR DURATION OF STUDY (STUDY DURATION: 24 MO), Dose: 0, 7.6, 30.1 MG/KG IN DIET FOR DURATION OF STUDY (STUDY DURATION: 24 MO)): inactive; negative
carcinogen call (Species: MOUSE, Strain/Sex: B6C3F1/MALE, Route: ORAL, Dose: 0, 7.6, 30.1 MG/KG IN DIET FOR DURATION OF STUDY (STUDY DURATION: 24 MO), Dose: 0, 7.6, 30.1 MG/KG IN DIET FOR DURATION OF STUDY (STUDY DURATION: 24 MO)): inactive; negative
carcinogen call (Species: RAT, Strain/Sex: F344/FEMALE, Route: ORAL, Dose: 0, 5.7, 16.6 MG/KG IN DIET FOR DURATION OF STUDY (STUDY DURATION: 24 MO), Dose: 0, 5.7, 16.6 MG/KG IN DIET FOR DURATION OF STUDY (STUDY DURATION: 24 MO), Tumor Site: Type of Lesion: LIVER: ADENOMA OR CARCINOMA, UTERUS: ENDOMETRIAL STROMAL POLYP): active; positive
carcinogen call (Species: RAT, Strain/Sex: F344/MALE, Route: ORAL, Dose: 0, 3.1, 9.7 MG/KG IN DIET FOR DURATION OF STUDY (STUDY DURATION: 24 MO), Dose: 0, 3.1, 9.7 MG/KG IN DIET FOR DURATION OF STUDY (STUDY DURATION: 24 MO), Tumor Site: Type of Lesion: LIVER: ADENOMA OR CARCINOMA): active; positive

From PubChem BioAssay AID1259411 (Chemical Carcinogenesis Research Information System (CCRIS), 2018)
